In patent US10077237B2 (Sanofi, priority 2013, dated 2018):
Several values for one entry are separate records, joined by “and”; a condition that tells them apart may be missing. Equal values may be shown once. Where a name gives a salt, the structure may show the parent alone.

Molecular target: T1, recombinant human AMPK complex, containing α2β1γ2 (Homo sapiens, UniProt P54646+Q9Y478)
T1 construct: hsAMPKα2-552-His, hsAMPKβ1-2-270 and hsAMPKγ-2-569 respectively; hsAMPKβ1-2-270; hsAMPKγ-2-569; His (C); made in house; host or cells: Spodoptera frugiperda Sf21 (baculovirus)
Assay: AMPK in vitro activation assay (HTRF)
Assay type: biochemical
Conditions: for EC50: HTRF, recombinant human α2β1γ2 AMPK, 200 μM ATP, biotinylated ACC-CREBp peptide, repeat determinations on separate lines; for Emax: potentiation of AMPK activity as percent over the basal signal (without compound)
Description: The recombinant human AMPK complex, containing α2β1γ2 was obtained from baculovirus expression system and generated by cotransfection in Spodoptera frugiperda 21 (Sf21). […] were produced in serum free medium (SF900 II, Invitrogen) for 82 hours after a triple infection at a multiplicity of infection (M.O.I.) of 0.05, 0.06 and 0.045 for hsAMPKα2-552-His, hsAMPKβ1-2-270 and hsAMPKγ-2-569 respectively. Cells were harvested by centrifugation at 1,000×g for 10 minutes at 4° C. and stored at −80° C. The insect cell pellet from 8 liters of culture was resuspended and homogenized in 580 ml of lysis buffer (20 mM Hepes pH 7.5, 150 mM NaCl, 10 mM imidazole, 50 mM NaF, 10% Glycerol and supplemented with EDTA free proteases inhibitor cocktail Roche). The AMPK complex was partially purified using an affinity chromatography under a Ni-NTA Agarose column equilibrated in the lysis buffer and eluted with a gradient (0 to 400 mM) of Imidazol.
A homogeneous time-resolved fluorescence (HTRF) assay was used (Li et al, Anal. Biochem. (2003) 321, 151-156) to identify compounds with stimulating activity for the recombinant human AMPK. Enzyme reaction was performed into a 96-well microtiter plate. First, 20 μL of test compounds in 0.5% DMSO were dispensed followed by 10 μL of protein in 50 mM HEPES buffer at pH 7.0, 100 mM NaCl, 5 mM MgCl2, 0.01% BSA, 0.8 mM DTT. After, 30 min incubation at room temperature, the reaction was initiated by the addition of 10 μL of a solution containing 200 μM of ATP as donor substrate, 2 μM or 0.08 μM of biotinylated ACC-CREBp peptide (PolyPeptide) as acceptor. Plates were then incubated 45 min at 37° C. The reaction was terminated by the addition of 40 μl detection mixture containing Eu^3+ cryptate-conjugated anti-pS^133-CREB antibody and streptavidine-XL665 (CisBio). Plates were further incubated for 2 h30 at room temperature. The fluorescence signal was measured using an Envision multireader (Perkin Elmer). The non-specific signal was obtained without substrates. Potentiation of AMPK activity was expressed as a percent over the basal signal (without compound) from which an EC50 value was determined.
The EC50 of a graded dose response curve represents the concentration of a compound where 50% of its maximal effect is observed.

T1 sequence (P54646 2-552): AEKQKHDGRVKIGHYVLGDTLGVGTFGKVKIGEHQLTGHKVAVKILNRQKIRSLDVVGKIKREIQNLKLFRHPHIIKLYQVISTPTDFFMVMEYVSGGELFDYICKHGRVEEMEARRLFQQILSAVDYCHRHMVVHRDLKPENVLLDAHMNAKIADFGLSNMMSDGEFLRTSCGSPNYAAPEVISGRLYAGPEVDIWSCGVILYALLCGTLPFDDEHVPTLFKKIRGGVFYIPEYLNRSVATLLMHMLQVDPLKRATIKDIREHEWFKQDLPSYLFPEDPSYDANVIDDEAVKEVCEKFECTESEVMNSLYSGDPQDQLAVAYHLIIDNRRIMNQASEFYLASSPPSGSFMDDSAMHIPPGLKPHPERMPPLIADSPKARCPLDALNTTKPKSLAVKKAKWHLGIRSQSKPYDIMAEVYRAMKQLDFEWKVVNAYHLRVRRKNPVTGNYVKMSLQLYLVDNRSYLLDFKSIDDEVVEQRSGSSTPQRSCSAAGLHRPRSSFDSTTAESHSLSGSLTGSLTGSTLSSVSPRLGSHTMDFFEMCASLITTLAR
T1 sequence (Q9Y478 2-270): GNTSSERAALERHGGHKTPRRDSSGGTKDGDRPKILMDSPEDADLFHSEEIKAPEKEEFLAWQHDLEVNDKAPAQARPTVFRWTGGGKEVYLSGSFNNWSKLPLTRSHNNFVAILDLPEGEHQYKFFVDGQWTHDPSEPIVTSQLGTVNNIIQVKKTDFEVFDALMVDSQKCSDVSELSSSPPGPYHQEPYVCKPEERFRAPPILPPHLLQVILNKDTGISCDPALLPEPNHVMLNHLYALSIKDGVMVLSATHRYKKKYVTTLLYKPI
T1 sequence (Q9UGJ0 2-569 partner limits assumed): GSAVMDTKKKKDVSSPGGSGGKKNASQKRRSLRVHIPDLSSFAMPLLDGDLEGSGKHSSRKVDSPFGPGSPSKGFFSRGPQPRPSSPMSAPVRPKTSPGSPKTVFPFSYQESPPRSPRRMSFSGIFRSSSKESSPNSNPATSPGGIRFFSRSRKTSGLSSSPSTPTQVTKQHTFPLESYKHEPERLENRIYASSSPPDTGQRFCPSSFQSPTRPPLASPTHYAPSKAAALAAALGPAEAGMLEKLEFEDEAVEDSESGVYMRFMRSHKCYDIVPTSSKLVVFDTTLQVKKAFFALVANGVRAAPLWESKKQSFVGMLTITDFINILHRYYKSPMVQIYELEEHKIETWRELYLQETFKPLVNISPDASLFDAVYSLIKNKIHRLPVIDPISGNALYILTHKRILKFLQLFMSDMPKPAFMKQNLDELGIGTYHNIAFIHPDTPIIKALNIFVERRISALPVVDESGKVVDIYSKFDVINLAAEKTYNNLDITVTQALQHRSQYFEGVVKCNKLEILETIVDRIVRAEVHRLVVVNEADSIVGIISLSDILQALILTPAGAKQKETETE

SMILES	EC50	Emax [%]
Cc1cc(C(O)=C2C(=O)Nc3cc(Cl)c(-c4ccc(-c5csc(N)n5)cc4)cc32)on1 [Compound 37, 5-[4-(2-Amino-thiazol-4-yl)-phenyl]-6-chloro-3-[1-hydroxy-1-(3-methyl-isoxazol-5-yl)-methylidene]-1,3-dihydro-indol-2-one]	37 nM	192
Cc1cc(C(O)=C2C(=O)Nc3cc(Cl)c(-c4ccc(C5=CCOCC5)cc4)cc32)sn1 [Compound 48, 6-Chloro-5-[4-(3,6-dihydro-2H-pyran-4-yl)-phenyl]-3-[1-hydroxy-1-(3-methyl-isothiazol-5-yl)-methylidene]-1,3-dihydro-indol-2-one]	95 nM	87
COCCOc1ccc(-c2cc3c(cc2Cl)NC(=O)C3=C(O)c2cc(C)no2)cc1 [Compound 103, 6-chloro-3-[hydroxy-(3-methylisoxazol-5-yl)methylene]-5-[4-(2-methoxyethoxy)phenyl]indolin-2-one]	16 nM	114
COc1c(F)cc(C(O)=C2C(=O)Nc3cc(Cl)c(-c4ccc(N5CCOCC5)cc4)cc32)cc1Cl [Compound 97, 6-chloro-3-[(3-chloro-5-fluoro-4-methoxy-phenyl)hydroxy-methylene]-5-(4-morpholinophenyl)indolin-2-one]	41 nM	185
COc1ccc(C(O)=C2C(=O)Nc3cc(Cl)c(-c4ccc(N5CCOCC5)cc4)cc32)cn1 [Compound 151, 6-chloro-3-[hydroxy-(6-methoxy-3-pyridyl)methylene]-5-(4-morpholinophenyl)indolin-2-one]	6 nM	161
Cc1cc(C(O)=C2C(=O)Nc3cc(Cl)c(-c4ccc(OCCCN5CCNCC5)cc4)cc32)on1 [Compound 69, 6-Chloro-3-[1-hydroxy-1-(3-methyl-isoxazol-5-yl)methylidene]-5-[4-(3-piperazin-1-yl-propoxy)phenyl]-1,3-dihydro-indol-2-one, hydrochloride]	8 nM	134
O=C1Nc2cc(Cl)c(-c3ccc(C4CC(O)C4)cc3)cc2C1=C(O)c1ccc(F)cc1F (stereo not shown) [Compound 155, 6-chloro-3-[(2,4-difluorophenyl)hydroxy-methylene]-5-[4-(3-hydroxycyclobutyl)phenyl]indolin-2-one]	60 nM	131
COc1cccc(-c2ccc(-c3cc4c(cc3Cl)NC(=O)C4=C(O)c3cc(OCCN4CCOCC4)no3)cc2)c1O [Compound 90, 6-chloro-5-[4-(2-hydroxy-3-methoxy-phenyl)phenyl]-3-[hydroxy-[3-(2-morpholinoethoxy)isoxazol-5-yl]methylene]indolin-2-one]	0.1 nM and 0.2 nM	
COc1cc(C(O)=C2C(=O)Nc3cc(Cl)c(-c4ccc5c(ccn5C)c4)cc32)on1 [Compound 154, 6-chloro-3-[hydroxy-(3-methoxyisoxazol-5-yl)methylene]-5-(1-methylindol-5-yl)indolin-2-one]	0.7 nM	256
O=C1Nc2cc(Cl)c(-c3ccc(N4CCOCC4)cc3)cc2C1=C(O)c1cccc(Cl)c1 [Compound 34, 6-Chloro-3-[1-(3-chloro-phenyl)-1-hydroxy-methylidene]-5-(4-morpholin-4-yl-phenyl)-1,3-dihydro-indol-2-one]	630 nM	156

The next lines start with the values.

EC50	Emax [%]	SMILES
0.6 nM	126	O=C1Nc2cc(Cl)c(-c3ccc(C4(CO)CC4)cc3F)cc2C1=C(O)c1cc(C2CC2)no1 [Compound 113, 6-chloro-3-[(3-cyclopropylisoxazol-5-yl)hydroxy-methylene]-5-[2-fluoro-4-[1-(hydroxymethyl)cyclopropyl]phenyl]indolin-2-one]
7 nM	234	COc1cc(C(O)=C2C(=O)Nc3cc(Cl)c(-c4ccc(N(C)C5CC5)cc4)cc32)on1 [Compound 153, 6-chloro-5-[4-[cyclopropyl(methyl)amino]phenyl]-3-[hydroxy-(3-methoxyisoxazol-5-yl)methylene]indolin-2-one]
117 nM	156	COc1cc(C(O)=C2C(=O)Nc3cc(Cl)c(-c4ccc(C5CCN(CC(F)(F)F)C5)cc4)cc32)on1 (stereo not shown) [Compound 167, 6-chloro-3-[hydroxy-(3-methoxyisoxazol-5-yl)methylene]-5-[4-[1-(2,2,2-trifluoroethyl)pyrrolidin-3-yl]phenyl]indolin-2-one hydrochloride]
0.6 nM and 0.4 nM		COc1ccc(C(O)=C2C(=O)Nc3cc(Cl)c(-c4ccc(C5(CO)CC5)cc4)cc32)cc1F [Compound 88, 6-chloro-3-[(3-fluoro-4-methoxy-phenyl)hydroxy-methylene]-5-[4-[1-(hydroxymethyl)cyclopropyl]phenyl]indolin-2-one]
3 nM	230	O=C1Nc2cc(Cl)c(-c3ccc(C4(CO)CC4)cc3)cc2C1=C(O)c1ccc(F)c(F)c1 [Compound 143, 6-chloro-3-[(3,4-difluorophenyl)hydroxy-methylene]-5-[4-[1-(hydroxymethyl)cyclopropyl]phenyl]indolin-2-one]
0.1 nM		COc1cc(C(O)=C2C(=O)Nc3cc(F)c(-c4ccc(C5(CO)CC5)cc4)c(F)c32)on1 [Compound 83, 4,6-difluoro-3-[hydroxy-(3-methoxyisoxazol-5-yl)methylene]-5-[4-[1-(hydroxymethyl)cyclopropyl]phenyl]indolin-2-one]
18 nM	218	COc1cc(C(O)=C2C(=O)Nc3cc(Cl)c(-c4ccc(C5CC(OC)C5)cc4)cc32)on1 (stereo not shown) [Compound 165, 6-chloro-3-[hydroxy-(3-methoxyisoxazol-5-yl)methylene]-5-[4-(3-methoxycyclobutyl)phenyl]indolin-2-one]
98 nM	254	O=C1Nc2cc(Cl)c(-c3ccc(N4CCOCC4)cc3)cc2C1=C(O)c1cc(C2CC2)on1 [Compound 62, 6-Chloro-3-[1-(5-cyclopropyl-isoxazol-3-yl)-1-hydroxy-methylidene]-5-(4-morpholin-4-yl-phenyl)-1,3-dihydro-indol-2-one]
0.1 nM	172	O=C1Nc2cc(Cl)c(-c3ccc(C4(CO)CC4)cc3)cc2C1=C(O)c1cc2ncccc2o1 [Compound 169, 6-chloro-3-[furo[3,2-b]pyridin-2-yl(hydroxy)methylene]-5-[4-[1-(hydroxymethyl)cyclopropyl]phenyl]indolin-2-one]
2 nM	229	O=C1Nc2cc(Cl)c(-c3ccc(C4(CO)CC4)cc3)cc2C1=C(O)c1ccc(F)cc1F [Compound 141, 6-chloro-3-[(2,4-difluorophenyl)hydroxy-methylene]-5-[4-[1-(hydroxymethyl)cyclopropyl]phenyl]indolin-2-one]
700 nM	133	Cc1cc(C(O)=C2C(=O)Nc3cc(Cl)c(-c4ccc(C#N)cc4)cc32)on1 [Compound 38, 4-{6-Chloro-3-[1-hydroxy-1-(3-methyl-isoxazol-5-yl)-methylidene]-2-oxo-2,3-dihydro-1H-indol-5-yl}-benzonitrile]
38 nM	283	Cc1cc(C(O)=C2C(=O)Nc3cc(Cl)c(-c4ccc(N5CCOCC5)cc4)cc32)on1 [Compound 14, 6-Chloro-3-[1-hydroxy-1-(3-methyl-isoxazol-5-yl)-methylidene]-5-(4-morpholin-4-yl-phenyl)-1,3-dihydro-indol-2-one]
410 nM	223	COc1ccc(-c2cc3c(cc2Cl)NC(=O)C3=C(O)c2cc(C)no2)cc1 [Compound 20, 6-Chloro-3-[1-hydroxy-1-(3-methyl-isoxazol-5-yl)-methylidene]-5-(4-methoxy-phenyl)-1,3-dihydro-indol-2-one]
0.3 nM and 0.2 nM		COc1cc(C(O)=C2C(=O)Nc3cc(Cl)c(-c4ccc(C5(CO)CC5)c(F)c4)cc32)on1 [Compound 96, 6-chloro-5-[3-fluoro-4-[1-(hydroxymethyl)cyclopropyl]phenyl]-3-[hydroxy-(3-methoxyisoxazol-5-yl)methylene]indolin-2-one]
1 nM	142	Cc1ncc(C(O)=C2C(=O)Nc3cc(Cl)c(-c4ccc(C5(CO)CC5)cc4)cc32)s1 [Compound 75, 6-Chloro-5-[4-(1-hydroxymethyl-cyclopropyl)phenyl]-3-[1-hydroxy-1-(2-methyl-thiazol-5-yl)methylidene]-1,3-dihydro-indol-2-one]
